Assay [1] addresses T1, Carboxypeptidase A (Bos taurus, UniProt P00730).
T1 sequence (P00730 111-419): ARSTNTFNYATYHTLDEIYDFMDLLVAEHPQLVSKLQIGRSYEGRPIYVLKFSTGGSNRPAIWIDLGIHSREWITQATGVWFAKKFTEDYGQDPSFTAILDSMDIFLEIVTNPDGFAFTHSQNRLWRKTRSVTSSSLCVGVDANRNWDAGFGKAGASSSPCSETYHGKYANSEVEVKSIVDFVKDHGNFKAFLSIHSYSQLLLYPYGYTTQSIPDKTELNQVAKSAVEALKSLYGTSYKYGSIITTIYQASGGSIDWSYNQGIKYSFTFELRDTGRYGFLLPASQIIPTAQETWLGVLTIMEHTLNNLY
As to the kind of experiment: Carboxypeptidase A activity assay. It counts as biochemical. The settings on record: Ki class; compounds tested in 5% DMSO, 12 concentrations. In a few lines:
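Ki obtained by correcting apparent Ki for substrate, Ki=Kiapp/(1+[S]/Km), from 12-concentration series. Enzyme activity read by absorbance at 328 nm with 5% DMSO present, EDTA stop.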

The target of assay [2] is T2, ACE (Sigma, A2580) (Sus scrofa, UniProt F1RRW5).
T2 construct: ACE from porcine kidney; purchased Sigma A2580; host or cells: porcine kidney
T2 sequence (F1RRW5 34-1309): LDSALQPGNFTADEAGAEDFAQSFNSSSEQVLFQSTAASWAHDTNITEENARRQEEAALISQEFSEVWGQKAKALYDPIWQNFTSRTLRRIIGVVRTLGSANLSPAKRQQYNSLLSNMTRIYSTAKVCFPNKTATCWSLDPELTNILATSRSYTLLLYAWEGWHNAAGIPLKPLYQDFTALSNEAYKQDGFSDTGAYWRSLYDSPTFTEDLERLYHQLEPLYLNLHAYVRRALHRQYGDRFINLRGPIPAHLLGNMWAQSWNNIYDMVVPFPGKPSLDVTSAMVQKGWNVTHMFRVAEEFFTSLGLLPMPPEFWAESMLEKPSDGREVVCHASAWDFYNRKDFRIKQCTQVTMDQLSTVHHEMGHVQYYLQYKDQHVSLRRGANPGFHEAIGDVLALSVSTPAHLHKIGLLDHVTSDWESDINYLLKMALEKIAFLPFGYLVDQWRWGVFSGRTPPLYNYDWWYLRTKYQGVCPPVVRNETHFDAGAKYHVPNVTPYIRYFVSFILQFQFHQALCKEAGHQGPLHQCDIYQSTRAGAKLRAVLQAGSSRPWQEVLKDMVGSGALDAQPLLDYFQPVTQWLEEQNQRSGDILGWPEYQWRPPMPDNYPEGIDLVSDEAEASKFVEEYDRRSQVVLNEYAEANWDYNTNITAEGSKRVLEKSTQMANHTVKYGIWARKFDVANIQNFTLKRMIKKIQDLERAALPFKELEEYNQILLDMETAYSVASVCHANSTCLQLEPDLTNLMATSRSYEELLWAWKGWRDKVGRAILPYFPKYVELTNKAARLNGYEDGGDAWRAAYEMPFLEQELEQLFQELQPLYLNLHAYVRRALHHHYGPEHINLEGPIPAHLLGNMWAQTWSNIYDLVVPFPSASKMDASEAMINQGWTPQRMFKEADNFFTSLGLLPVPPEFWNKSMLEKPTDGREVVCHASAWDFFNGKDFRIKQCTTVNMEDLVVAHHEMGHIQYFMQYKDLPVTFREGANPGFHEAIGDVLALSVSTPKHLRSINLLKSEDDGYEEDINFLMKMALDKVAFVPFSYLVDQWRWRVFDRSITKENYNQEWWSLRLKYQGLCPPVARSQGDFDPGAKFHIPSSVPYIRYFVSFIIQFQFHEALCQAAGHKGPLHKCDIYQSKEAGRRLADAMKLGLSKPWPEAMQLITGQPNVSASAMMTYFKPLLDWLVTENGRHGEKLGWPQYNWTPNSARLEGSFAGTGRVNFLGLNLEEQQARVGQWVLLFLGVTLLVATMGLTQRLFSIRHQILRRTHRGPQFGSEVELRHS
As to the kind of experiment: ACE enzymatic activity assay. It counts as biochemical, porcine. The settings on record: Ki class; compounds tested in 5% DMSO, 12 concentrations. A digest of the protocol:
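Fluorogenic substrate cleavage by 1 nM ACE, read at 320/405 nm after EDTA stop at ~30 min. Reactions at 25 °C, pH 7.5, in HEPES/NaCl/Brij-35 buffer; compounds tested at 12 concentrations in 5% DMSO.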

The target in assay [3] is T3, ACE-2 (Homo sapiens, UniProt Q9BYF1).
T3 construct: a stop codon inserted after the serine immediately preceding the transmembrane domain; made in house; host or cells: CHO K1 cells (transient transfection, purified from conditioned medium)
T3 sequence (Q9BYF1 18-740 limits assumed): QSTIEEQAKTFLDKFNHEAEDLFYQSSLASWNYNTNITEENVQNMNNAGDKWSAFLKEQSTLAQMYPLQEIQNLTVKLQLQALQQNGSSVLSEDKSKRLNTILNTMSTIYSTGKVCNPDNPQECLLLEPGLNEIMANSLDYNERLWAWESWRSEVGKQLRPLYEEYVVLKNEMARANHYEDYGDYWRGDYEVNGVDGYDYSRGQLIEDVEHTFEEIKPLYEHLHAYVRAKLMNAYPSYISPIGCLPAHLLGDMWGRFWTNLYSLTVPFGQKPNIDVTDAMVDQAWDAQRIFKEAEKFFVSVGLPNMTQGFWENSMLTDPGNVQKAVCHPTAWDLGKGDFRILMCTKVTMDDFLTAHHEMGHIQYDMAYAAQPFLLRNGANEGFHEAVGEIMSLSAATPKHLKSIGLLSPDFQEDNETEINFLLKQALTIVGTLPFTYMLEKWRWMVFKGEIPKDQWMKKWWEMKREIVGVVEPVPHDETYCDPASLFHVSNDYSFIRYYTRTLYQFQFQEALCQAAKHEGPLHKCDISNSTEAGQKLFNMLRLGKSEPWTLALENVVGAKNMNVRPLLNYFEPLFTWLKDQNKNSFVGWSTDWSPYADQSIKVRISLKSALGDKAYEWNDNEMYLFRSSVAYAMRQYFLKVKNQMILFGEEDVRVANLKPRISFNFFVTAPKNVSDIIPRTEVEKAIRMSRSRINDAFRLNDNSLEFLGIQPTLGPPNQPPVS
The assay is described as follows: ACE-2 Competitive Substrate Assay (ACS Assay). It counts as biochemical. The settings on record: Ki class; compounds tested in 5% DMSO, 12 concentrations; read-out: Human ACE-2 Activity.

Assay [4] has as its target ACE-2 (Rattus norvegicus, UniProt Q5EGZ1). The assay is described as follows: ACE-2 Competitive Substrate Assay, rat ACE-2. The settings on record: Ki class; compounds tested in 5% DMSO, 12 concentrations. It counts as biochemical.

A value given as a limit tells only on which side of the number the result lay.

Chain of ACE-2 (Rattus norvegicus, UniProt Q5EGZ1) (Q5EGZ1 18-805): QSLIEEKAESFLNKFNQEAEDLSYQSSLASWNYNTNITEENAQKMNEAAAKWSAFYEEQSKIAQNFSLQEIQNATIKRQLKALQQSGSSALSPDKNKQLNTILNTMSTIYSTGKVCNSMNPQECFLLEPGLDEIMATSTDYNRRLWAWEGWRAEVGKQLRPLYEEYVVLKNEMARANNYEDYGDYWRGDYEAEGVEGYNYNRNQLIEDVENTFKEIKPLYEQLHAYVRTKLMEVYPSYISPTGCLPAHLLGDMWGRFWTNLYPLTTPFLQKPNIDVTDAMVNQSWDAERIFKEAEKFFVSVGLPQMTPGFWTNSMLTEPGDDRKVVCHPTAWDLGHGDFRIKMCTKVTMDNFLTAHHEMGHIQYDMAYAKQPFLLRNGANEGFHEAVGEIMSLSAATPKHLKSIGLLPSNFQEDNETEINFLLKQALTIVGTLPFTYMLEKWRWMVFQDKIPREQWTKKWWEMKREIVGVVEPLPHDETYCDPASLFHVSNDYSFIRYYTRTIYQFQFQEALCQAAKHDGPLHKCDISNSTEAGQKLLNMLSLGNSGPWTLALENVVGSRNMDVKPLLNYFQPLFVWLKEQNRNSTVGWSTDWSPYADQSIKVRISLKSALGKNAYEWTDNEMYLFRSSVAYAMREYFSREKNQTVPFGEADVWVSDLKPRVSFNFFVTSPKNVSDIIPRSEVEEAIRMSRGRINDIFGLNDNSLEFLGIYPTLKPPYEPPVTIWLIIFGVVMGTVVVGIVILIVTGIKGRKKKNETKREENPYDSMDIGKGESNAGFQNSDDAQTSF

As for `CC(C)CC(N[C@H](Cc1c[nH]cn1)C(=O)O)C(=O)O` (stereo partly shown) [BB, 2-[1-Carboxy-2-(1H-imidazol-4-yl)-ethylamino]4-methyl-pentanoic acid], the Ki in assay [1] is above 50000 nM; in assay [2], below 10000 nM; in assay [3], above 500 nM; in assay [4], above 500 nM.
Regarding `CCCC(N[C@H](Cc1c[nH]cn1)C(=O)O)C(=O)O` (stereo partly shown) [BC, 2-[1-Carboxy-2-(1H-imidazol-4-yl)-ethylamino]pentanoic-acid], the Ki is above 50000 nM in assay [1], 10000 to 50000 nM in assay [2], above 500 nM in assay [3] and above 500 nM in assay [4].
With `CC(N[C@H](Cc1c[nH]cn1)C(=O)O)C(=O)O` (stereo partly shown) [BD, 2-(1-carboxy-ethylamino)-3-(1H-imidazol-4-yl)-propionic acid], the Ki was above 50000 nM in assay [1], above 50000 nM in assay [2], above 500 nM in assay [3] and above 500 nM in assay [4].
On to `CC(C)CC(NC(Cc1ccccn1)C(=O)O)C(=O)O` (stereo not shown) [BF, 2-(1-Carboxy-2-pyridin-2-yl-ethylamino)-4-methyl-pentanoic acid], for which the Ki in assay [1] was above 50000 nM; in assay [2], above 50000 nM; in assay [3] it was above 500 nM; in assay [4] it was 100 to 500 nM.
For `COc1ccc(C(N[C@@H](CC(C)C)C(=O)O)C(=O)O)cc1` (stereo partly shown) [BQ, 2-[(Carboxy-(4-methoxy-phenyl)-methyl]-amino]-4-methyl-pentanoic acid], the Ki in assay [1] was above 50000 nM; in assay [2], above 50000 nM; in assay [3], above 500 nM; in assay [4] it was above 500 nM.
Turning to `CC(C)C[C@H](NC(C(=O)O)c1ccc2ccccc2c1)C(=O)O` (stereo partly shown) [BR, 2-[(Carboxy-naphthalen-2-yl-methyl)-amino]-4-methyl-pentanoic acid], the Ki in assay [1] was above 50000 nM; in assay [2] it was above 50000 nM; in assay [3] it was above 500 nM; in assay [4], above 500 nM.
In the case of `CC(C)C[C@@H](N[C@H](C(=O)O)c1ccccc1)C(=O)O` [BS, 2-[(Carboxy-phenyl-methyl)-amino]-4-methyl-pentanoic acid], the Ki is above 50000 nM in assay [1], above 50000 nM in assay [2], above 500 nM in assay [3] and above 500 nM in assay [4].
For `CC(C)C[C@@H](N[C@@H](C(=O)O)c1ccccc1)C(=O)O` [BT, 2-[(Carboxy-phenyl-methyl)-amino]-4-methyl-pentanoic acid], the Ki was above 50000 nM in assay [1], above 50000 nM in assay [2], above 500 nM in assay [3] and above 500 nM in assay [4].
For the compound `NCCCC[C@H](NC(CCc1ccccc1)C(=O)O)C(=O)O` (stereo partly shown) [BU, 6-Amino-2-(1-carboxy-3-phenyl-propylamino)-hexanoic acid], the Ki in assay [1] was above 50000 nM; in assay [2] it was above 50000 nM; in assay [3] it was above 500 nM; in assay [4] it was above 500 nM.
For `CC(C)CC(N[C@@H](Cc1cn(Cc2ccccc2)cn1)C(=O)O)C(=O)O` (stereo partly shown) [BV, 2-[2-(1-Benzyl-1H-imidazol-4-yl)-1-carboxy-ethylamino]-4-methyl-pentanoic acid], the Ki in assay [1] was below 10000 nM; in assay [2], 10000 to 50000 nM; in assay [3], above 500 nM; in assay [4], above 500 nM.
Regarding `CC(C)C[C@H](N[C@@H](Cc1ccccc1)C(=O)O)C(=O)O` [BW, 2-(1-Carboxy-2-phenyl-ethylamino)-4-methyl-pentanoic acid], the Ki is 10000 to 50000 nM in assay [1], above 50000 nM in assay [2], above 500 nM in assay [3] and 100 to 500 nM in assay [4].
Taken in the same sequence, the figures for `CC(C)CC(N[C@H](Cc1cn(C)cn1)C(=O)O)C(=O)O` (stereo partly shown) [CA, 2-[-Carboxy-2-(1-methyl-1H-imidazol-4-yl)-ethylamino]-4-methyl-pentanoic acid] were above 50000 nM, above 50000 nM, above 500 nM and above 500 nM.
Taken in the same sequence, the figures for `CC(C)CC(N[C@H](Cc1cncn1C)C(=O)O)C(=O)O` (stereo partly shown) [CB, 2-[1-Carboxy-2-(3-methyl-3H-imidazol-4-yl)-ethylamino]-4-methyl-pentanoic acid] were above 50000 nM, above 50000 nM, above 500 nM and above 500 nM.
As for `CC(C)CC(N[C@H](Cc1cccnc1)C(=O)O)C(=O)O` (stereo partly shown) [CC, 2-(1-Carboxy-2-pyridin-3-yl-ethylamino)-4-methyl-pentanoic acid], the Ki in assay [1] is above 50000 nM; in assay [2], above 50000 nM; in assay [3] it was above 500 nM; in assay [4] it was above 500 nM.
As for `CC(C)CC(N[C@@H](Cc1nc[nH]n1)C(=O)O)C(=O)O` (stereo partly shown) [CD, 2-[1-Caboxy-2-(1H-[1,2,4]triazol-3-yl)-ethylamino]-4-methyl-pentanoic acid], the Ki in assay [1] is above 50000 nM; in assay [2], above 50000 nM; in assay [3] it was above 500 nM; in assay [4], 100 to 500 nM.
In the case of `CC(C)CC(N[C@H](Cc1nc[nH]n1)C(=O)O)C(=O)O` (stereo partly shown) [CE, 2-[1-Carboxy-2-(1H-[1,2,4]triazol-3-yl)-ethylamino]-4-methyl-pentanoic acid], the Ki in assay [1] was above 50000 nM; in assay [2] it was above 50000 nM; in assay [3], above 500 nM; in assay [4], above 500 nM.
With `CC(C)CC(NC(Cc1nccs1)C(=O)O)C(=O)O` (stereo not shown) [CF, 2-(1-Carboxy-2-thiazol-2-yl-ethylamino)-4-methyl-pentanoic acid], the Ki is above 50000 nM in assay [1], above 50000 nM in assay [2], above 500 nM in assay [3] and 100 to 500 nM in assay [4].
With `CC(C)(C)C[C@H](N[C@@H](C(=O)O)c1ccccc1)C(=O)O` [CJ, 2-[(Carboxy-phenyl-methyl)-amino]-4,4-dimethyl-pentanoic acid], the Ki in assay [1] is above 50000 nM; in assay [2], above 50000 nM; in assay [3] it was above 500 nM; in assay [4], above 500 nM.
`CC(C)(C)C[C@H](N[C@@H](CCc1ccccc1)C(=O)O)C(=O)O` [CK, 2-(1-Carboxy-3-phenyl-propylamino)-4,4-dimethylpentanoic acid]: the Ki in assay [1] was above 50000 nM; in assay [2] it was above 50000 nM; in assay [3] it was above 500 nM; in assay [4], 100 to 500 nM.
As for `O=C(O)[C@H](CCc1ccccc1)N[C@@H](CC1CC1)C(=O)O` [CL, 2-(1-Carboxy-2-cyclopropyl-ethylamino)-4-phenyl-butync acid], the Ki in assay [1] is above 50000 nM; in assay [2], above 50000 nM; in assay [3] it was above 500 nM; in assay [4], 100 to 500 nM.
With `CCCCCC[C@H](N[C@H](Cc1c[nH]cn1)C(=O)O)C(=O)O` [CR, 2-[1-Carboxy-2-(1H-imidazol-4-yl)-ethylamino)octanoic acid], the Ki was above 50000 nM in assay [1], above 50000 nM in assay [2], above 500 nM in assay [3] and above 500 nM in assay [4].
For the compound `CC(C)CC(N[C@H](Cc1cscn1)C(=O)O)C(=O)O` (stereo partly shown) [CV, 2-(1-Carboxy-2-thiazol-4-yl-ethylamino)-4-methyl-pentanoic acid], the Ki was above 50000 nM in assay [1], above 50000 nM in assay [2], above 500 nM in assay [3] and above 500 nM in assay [4].

The record behind these values is patent US7045532B2 (Millennium Pharmaceuticals, Inc., priority 1999, dated 2006).
